Laboratory results: publication PMC7794376 (Nature Communications, 2021)
Values after ≈ are worked out from the molar mass of the structure shown. Values joined by “and” are separate entries in the source; they are usually repeats but may differ in a detail not shown here. Equal entries are not always repeated. Where two headings read alike, the source gives them in different places.

Legend:
M. tuberculosis H37Rv = assay: MIC determination in different media; assay type: cell-based; details: Mycobacterium tuberculosis, read-out: Minimum inhibitory concentration (MIC)
MtbCoaBC [1] = target: T1, MtbCoaBC (Mycobacterium tuberculosis, UniProt P9WNZ1); assay: High-throughput end-point pyrophosphate quantification assay (Biomol Green); assay type: biochemical
MtbCoaBC [2] = target: T1, MtbCoaBC; assay: biochemical; assay type: biochemical; details: for IC50: read-out: IC50 EnzChek MtbCoaBC; for Activity %: relative to average CT; for Activity: slope of absorbance at 360 nm vs time (s); for inhibition, replicates / reaction rate (slope of absorbance at 360 nm over time), replicates: IC50 MtbCoaBC AcCoA
MtbCoaBC [3] = target: T1, MtbCoaBC; assay: Competition assays, first half of CoaB reaction (EnzChek, variable CTP or PPA); assay type: biochemical; details: for mode of inhibition: in words
MtbCoaBC [4] = target: T1, MtbCoaBC; assay: CMP quantification assay (UPLC), second half of CoaB reaction, variable L-cysteine; assay type: biochemical; details: for CMP formation rate, uM CMP/uM protein.s-1: MtbCoaBC 32nM, replicates R1-R3
[5] = MtbCoaB activity, end-point, 2 µM CTP, 40 µM L-cysteine, 30 µM PPA, read-out: IC50 biomol green assay
[6] = uM 1c 0.125 as printed, replicates R1-R3
[7] = AcCoA concentration 512 (log 2.70927)
[8] = AcCoA concentration 1024 (log 3.0103)

T1 sequence (P9WNZ1 whole entry): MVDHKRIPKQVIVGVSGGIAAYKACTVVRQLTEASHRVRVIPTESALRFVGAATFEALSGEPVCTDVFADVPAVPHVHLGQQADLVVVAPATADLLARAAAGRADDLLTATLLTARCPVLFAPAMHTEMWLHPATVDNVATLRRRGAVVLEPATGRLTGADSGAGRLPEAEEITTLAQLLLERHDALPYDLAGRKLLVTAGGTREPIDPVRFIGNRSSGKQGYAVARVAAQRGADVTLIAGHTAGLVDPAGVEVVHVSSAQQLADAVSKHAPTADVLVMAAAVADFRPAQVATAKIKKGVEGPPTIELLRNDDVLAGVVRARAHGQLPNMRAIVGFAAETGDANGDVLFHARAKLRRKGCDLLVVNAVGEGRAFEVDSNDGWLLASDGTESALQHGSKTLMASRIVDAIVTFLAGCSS

Oc1ccc(Cc2ccc(O)c(O)c2O)cc1 [compound 1c]
MIC (M. tuberculosis H37Rv; 7H9/ADC/Glycerol): > 250 µM | MIC (M. tuberculosis H37Rv; GAST/Fe): 125 µM (≈ 29 µg/mL) | IC50 (MtbCoaBC [1]; [5]): 4.7 µM | IC50 (MtbCoaBC [2]): 4.6 ± 0.4 µM | remaining activity at 0.03125 µM (MtbCoaBC [2]; uM 1c 0.03125 as printed, replicates R1-R3): 94.6% | remaining activity at 0.0625 µM (MtbCoaBC [2]; uM 1c 0.0625 as printed, replicates R1-R3): 87.8% | inhibition at 0.0625 µM (MtbCoaBC [2]; uM 1c 0.0625 as printed, replicates R1-R3, read-out: Inhibition %): 17.8% | inhibition at […] (MtbCoaBC [2]; [6]): 29.1% | remaining activity at […] (MtbCoaBC [2]; [6]): 74.8% | remaining activity at 0.25 µM (MtbCoaBC [2]; uM 1c 0.25 as printed, replicates R1-R3): 65.6% | inhibition at 0.25 µM (MtbCoaBC [2]; uM 1c 0.25 as printed, replicates R1-R3, read-out: Inhibition %): 40.6% | remaining activity at 0.5 µM (MtbCoaBC [2]; uM 1c 0.5 as printed, replicates R1-R3): 40.9% | inhibition at 0.5 µM (MtbCoaBC [2]; uM 1c 0.5 as printed, replicates R1-R3, read-out: Inhibition %): 68.6% | inhibition at 1 µM (MtbCoaBC [2]; uM 1c 1 as printed, replicates R1-R3, read-out: Inhibition %): 89.7% | inhibition at 2 µM (MtbCoaBC [2]; uM 1c 2 as printed, replicates R1-R3, read-out: Inhibition %): 95%

O=c1cc(-c2ccccc2)oc2cc(O)c(O)c(O)c12 [2a]
IC50 (MtbCoaBC [1]): 3.1 µM

CC(=O)SCCNC(=O)CCNC(=O)[C@H](O)C(C)(C)COP(=O)(O)OP(=O)(O)OC[C@H]1O[C@@H](n2cnc3c(N)ncnc32)[C@H](O)[C@@H]1OP(=O)(O)O [AcCoA, acetyl-CoA]
mode of inhibition (MtbCoaBC [3]; relative to CTP): competitive | mode of inhibition (MtbCoaBC [3]; relative to PPA): competitive | Inibition type (MtbCoaBC [3]; variable substrate CTP): C (C competitive inhibition) | Ki (MtbCoaBC [3]; variable substrate CTP): 22.5 ± 1.7 µM | Inibition type (MtbCoaBC [3]; variable substrate PPA): C (C competitive inhibition) | Ki (MtbCoaBC [3]; variable substrate PPA): 22.4 ± 1.4 µM | CMP formation rate, uM CMP/uM protein.s-1 (MtbCoaBC [4]; 32uM AcCoA, 31.25 uM cysteine): 0.1004 uM CMP/uM protein.s-1 and 0.1195 uM CMP/uM protein.s-1 and 0.1103 uM CMP/uM protein.s-1 | CMP formation rate, uM CMP/uM protein.s-1 (MtbCoaBC [4]; 32uM AcCoA, 62.5 uM cysteine): 0.1434 uM CMP/uM protein.s-1 and 0.1547 uM CMP/uM protein.s-1 and 0.1394 uM CMP/uM protein.s-1 | CMP formation rate, uM CMP/uM protein.s-1 (MtbCoaBC [4]; 32uM AcCoA, 250 uM cysteine): 0.2114 uM CMP/uM protein.s-1 and 0.2235 uM CMP/uM protein.s-1 and 0.2345 uM CMP/uM protein.s-1 | CMP formation rate, uM CMP/uM protein.s-1 (MtbCoaBC [4]; 32uM AcCoA, 500 uM cysteine): 0.2276 uM CMP/uM protein.s-1 and 0.2314 uM CMP/uM protein.s-1 and 0.2458 uM CMP/uM protein.s-1 | CMP formation rate, uM CMP/uM protein.s-1 (MtbCoaBC [4]; 64uM AcCoA, 31.25 uM cysteine): 0.08802 uM CMP/uM protein.s-1 and 0.06801 uM CMP/uM protein.s-1 and 0.07425 uM CMP/uM protein.s-1 | CMP formation rate, uM CMP/uM protein.s-1 (MtbCoaBC [4]; 64uM AcCoA, 62.5 uM cysteine): 0.1006 uM CMP/uM protein.s-1 and 0.1253 uM CMP/uM protein.s-1 and 0.1155 uM CMP/uM protein.s-1 | CMP formation rate, uM CMP/uM protein.s-1 (MtbCoaBC [4]; 64uM AcCoA, 250 uM cysteine): 0.1479 uM CMP/uM protein.s-1 and 0.156 uM CMP/uM protein.s-1 and 0.1565 uM CMP/uM protein.s-1 | CMP formation rate, uM CMP/uM protein.s-1 (MtbCoaBC [4]; 64uM AcCoA, 500 uM cysteine): 0.1756 uM CMP/uM protein.s-1 and 0.1564 uM CMP/uM protein.s-1 and 0.1555 uM CMP/uM protein.s-1 | CMP formation rate, uM CMP/uM protein.s-1 (MtbCoaBC [4]; 128uM AcCoA, 31.25 uM cysteine): 0.04605 uM CMP/uM protein.s-1 and 0.05632 uM CMP/uM protein.s-1 and 0.0514 uM CMP/uM protein.s-1 | CMP formation rate, uM CMP/uM protein.s-1 (MtbCoaBC [4]; 128uM AcCoA, 62.5 uM cysteine): 0.06616 uM CMP/uM protein.s-1 and 0.09648 uM CMP/uM protein.s-1 and 0.09325 uM CMP/uM protein.s-1 | CMP formation rate, uM CMP/uM protein.s-1 (MtbCoaBC [4]; 128uM AcCoA, 250 uM cysteine): 0.09625 uM CMP/uM protein.s-1 and 0.1011 uM CMP/uM protein.s-1 and 0.1018 uM CMP/uM protein.s-1 | CMP formation rate, uM CMP/uM protein.s-1 (MtbCoaBC [4]; 128uM AcCoA, 500 uM cysteine): 0.1011 uM CMP/uM protein.s-1 and 0.1154 uM CMP/uM protein.s-1 and 0.1123 uM CMP/uM protein.s-1 | mode of inhibition (MtbCoaBC [4]; relative to L-cysteine, in words): non-competitive inhibition | Ki (MtbCoaBC [4]; variable substrate L-cysteine): 62.1 ± 2 µM | Activity % (MtbCoaBC [2]; 8 uM AcCoA, replicates R1-R3): 102.2% and 99.12% and 97.26% | Inhibition % (MtbCoaBC [2]; 8 uM AcCoA, replicates R1-R3): 0.88% and 2.74% and -2.21% | Activity (MtbCoaBC [2]; 8 uM AcCoA, replicates R1-R3): 0.0001687 and 0.0001636 and 0.0001606 | Activity % (MtbCoaBC [2]; 16 uM AcCoA, replicates R1-R3): 97.8% and 95.95% | Inhibition % (MtbCoaBC [2]; 16 uM AcCoA, replicates R1-R3): 2.20% and 4.05% | Activity (MtbCoaBC [2]; 16 uM AcCoA, replicates R1-R3): 0.0001621 and 0.0001615 and 0.0001584 | Activity % (MtbCoaBC [2]; 32 uM AcCoA, replicates R1-R3): 83.56% and 84.79% and 80.02% | Inhibition % (MtbCoaBC [2]; 32 uM AcCoA, replicates R1-R3): 15.21% and 19.98% and 16.44% | Activity (MtbCoaBC [2]; 32 uM AcCoA, replicates R1-R3): 0.0001379 and 0.00014 and 0.0001321 | Activity % (MtbCoaBC [2]; 64 uM AcCoA, replicates R1-R3): 72.03% and 75.67% and 69.98% | Inhibition % (MtbCoaBC [2]; 64 uM AcCoA, replicates R1-R3): 24.33% and 30.02% and 27.97% | Activity (MtbCoaBC [2]; 64 uM AcCoA, replicates R1-R3): 0.0001189 and 0.0001249 and 0.0001155 | Activity % (MtbCoaBC [2]; 128 uM AcCoA, replicates R1-R3): 46.95% and 48.75% and 44.16% | Inhibition % (MtbCoaBC [2]; 128 uM AcCoA, replicates R1-R3): 51.25% and 55.84% and 53.05% | Activity (MtbCoaBC [2]; 128 uM AcCoA, replicates R1-R3): 0.000077520 and 0.000080489 and 0.000072900 | Activity % (MtbCoaBC [2]; 256 uM AcCoA, replicates R1-R3): 25.68% and 25.48% and 26.76% | Inhibition % (MtbCoaBC [2]; 256 uM AcCoA, replicates R1-R3): 74.52% and 73.24% and 74.32% | Activity (MtbCoaBC [2]; 256 uM AcCoA, replicates R1-R3): 0.000042403 and 0.000042072 and 0.000044186 | IC50 (MtbCoaBC [2]; CoaB activity, […] CTP, […] PPA, 500 µM L-cysteine, average of three independent experiments ± SD): 121 ± 9 µM | inhibition, replicates (MtbCoaBC [2]; [7]): 81.65 and 87.30 and 84.02 | reaction rate (slope of absorbance at 360 nm over time), replicates (MtbCoaBC [2]; [7]): 0.000026380 and 0.000030299 and 0.000020964 | inhibition, replicates (MtbCoaBC [2]; [8]): 99.03 and 98.19 and 97.42 | reaction rate (slope of absorbance at 360 nm over time), replicates (MtbCoaBC [2]; [8]): 0.000004262 and 0.000001602 and 0.000002982

O=C(c1ccccc1)c1ccc(O)c(O)c1O [compound 1a]
IC50 (MtbCoaBC [1]; [5]): 9 µM
